Assay [1] deals with T1, human RORγ (Homo sapiens, UniProt P51449).
T1 sequence (P51449 269-508 limits assumed): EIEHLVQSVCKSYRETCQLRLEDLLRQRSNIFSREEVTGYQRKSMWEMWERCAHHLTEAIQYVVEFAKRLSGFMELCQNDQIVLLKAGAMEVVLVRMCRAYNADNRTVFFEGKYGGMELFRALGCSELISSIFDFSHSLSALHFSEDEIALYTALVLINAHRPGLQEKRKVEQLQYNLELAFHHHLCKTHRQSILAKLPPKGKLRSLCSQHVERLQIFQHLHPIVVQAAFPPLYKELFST
As to the kind of experiment: RORγ assay (GAL4-RORγ hybrid luciferase reporter, inverse-agonist activity). It counts as cell-based. As to conditions: GAL4-RORγ hybrid reporter cells, 23 hours. From the text:
C. RORγ Assay and Cell Viability
The RORγ assay system was purchased from Indigo Biosciences. This nuclear receptor assay utilizes a human cell line that has been engineered to express a hybrid form of the Human RAR-related Orphan Receptor Gamma (RORγ) at high levels. The N-terminal DNA binding domain (DBD) of the native RORγ receptor was substituted with the yeast GAL4-DBD to generate the GAL4-RORγ hybrid nuclear receptor. The reporter cell line is transfected with a plasmid that encodes the beetle luciferase gene under the control of the GAL4 upstream activating sequence (UAS). GAL4 binds to the UAS and increases transcription of downstream target genes. […] To assess the RORγ inverse-agonist activity of the test compounds, reporter cells were plated in white 96-well plates in triplicate and were treated with DMSO (vehicle) or test compound (concentration ranges of 0.4-200 nM or 2-1000 nM) at 37° C. with 5% CO2 in a humidified atmosphere for 23 hours. After this incubation, luciferin was added to the wells and luciferase activity was determined by measuring the luminescence signal using a BMG Pherastar microplate reader. Viability was determined using the Live Cell Multiplex Assay (Indigo Biosciences). Values from test compound samples were normalized to those from DMSO-treated samples. Data were analyzed using GraphPad Prism version 6.00 for Windows (GraphPad Software, La Jolla Calif. USA). A non-linear regression analysis with log (inhibitor) vs. normalized response using a variable slope was applied to fit the data and determine the IC50 values for inhibition of RORγ and cell viability.
(In general: Reporter assays use an easily measured gene product as a stand-in for the process of interest.)

The test system of assay [2] is hIL17. As to the kind of experiment: IL-17 release from differentiated primary human T-cells (IL-17A HTRF assay). It counts as cell-based. The following applies: inhibition of IL-17A levels; primary human CD4+ T cells differentiated into Th17 cells, 46-hour incubation. As to the method:
D. IL-17 Release from Differentiated Primary Human T-Cells and Cell Viability
Primary human cryopreserved CD4+ T Cells (Lonza, donor #0000402103) were plated in Lymphocyte Growth Medium-3 (LGM-3, Lonza) according to the manufacturer's recommendations, and allowed to recover for approximately 3 hours at 37° C. with 5% CO2 in a humidified atmosphere. After the recovery step, cells were collected by centrifugation and re-plated in 96-well plates at a density of ˜140,000 cells per well in LGM-3 medium that contained DMSO (vehicle) or test compound (2-500 nM or 4-1000 nM concentration range). Triplicate wells were plated for each test condition. DMSO (final concentration ≤0.1%) was used as the vehicle. Immediately after plating, CD4+ T cells were activated by adding Dynabeads Human T-Activator CD3/CD28 (Life Technologies; bead-to-cell ratio of 1:2.5) and differentiated into Th17 cells by adding a mixture of the following cytokines: transforming growth factor-β (TGF-β, 5 ng/mL), IL-6 (20 ng/mL), IL-23 (20 ng/mL), and […] (10 ng/mL). Undifferentiated control cells received only cytokine IL-2 (50 ng/mL). All human recombinant cytokines were purchased from R&D Systems. Following a 46-hour incubation at 37° C. with 5% CO2 in a humidified atmosphere, the plates were centrifuged for 3 minutes at 250×g, and half of the supernatant was transferred to a new plate to be used in the IL-17A assay (see below). Cell viability was assessed in the original plate using the CyQuant Direct Assay (Life Technologies). CyQuant values from test compound samples were normalized to those from DMSO-treated samples. The concentration of IL-17A in the supernatant was measured using the Homogeneous Time-Resolved Fluorescence (HTRF) assay (Cisbio Bioassays) according to the manufacturer's protocol. The assay was performed at room temperature in low volume, solid white 384-well plates (Greiner Bio-One). Samples and standards (serially-diluted human recombinant IL-17A (0 to 5,000 pg/mL concentration range; Cisbio Bioassays) were incubated with the anti-human IL-17A antibody conjugate for 16 hours and fluorescence was measured using a Pherastar FS microplate reader (BMG Labtech) in the HTRF mode (excitation at 337 nm and emission at 665 nm and 620 nm). IL-17A concentrations were assessed in duplicate aliquots of supernatant from each well resulting in a total of six readings per test condition. The 665 nm/620 nm signal ratio was calculated and the concentration of IL-17A in each sample was determined by interpolation from the standard curve. IL-17A values from test compound samples were normalized to those from DMSO-treated samples. Data were analyzed using GraphPad Prism version 6.00 for Windows (GraphPad Software, La Jolla Calif. USA). A non-linear regression analysis with log (inhibitor) vs. normalized response using a variable slope was applied to fit the data and determine the IC50 values for inhibition of IL-17A levels and cell viability.

The subject of assay [3] is IFNγ-induced Nitric Oxide production. As to the kind of experiment: Nitric oxide production assay in RAW 264.7 mouse macrophages. It counts as cell-based. The following applies: RAW264.7, suppression of IFNγ-induced NO production normalized to cell viability (WST-1), RAW 264.7, 24 hours IFNγ. As for the experimental part: A. Nitric Oxide Production Assay and Cell Viability
RAW 264.7 mouse macrophages were plated in 96-well plates at a density of 30,000 cells per well in triplicate in RPMI 1640+0.5% FBS and incubated at 37° C. with 5% CO2 in a humidified atmosphere. The next day, cells were pre-treated with DMSO (vehicle) or test compound (concentration ranges of 0.4-200 nM or 2-1000 nM) for 2 hours and then treated with recombinant mouse IFNγ (R&D Systems) for 24 hours. Nitric oxide concentration in media was determined using the Griess reagent system (Promega). Cell viability was determined using WST-1 reagent (Roche). Values from test compound samples were normalized to those from DMSO/IFNγ-treated samples. IC50 values were determined based on the suppression of IFNγ-induced Nitric Oxide production normalized to cell viability.
On the technique in general: Formazan colour is commonly taken as a measure of viable cells.

The test system of assay [4] is NRF2. As to the kind of experiment: AREc32 luciferase reporter assay. Type of assay: cell-based, human. As to conditions: EC2×: concentration required to increase GST ARE Luciferase reporter activity by 2-fold; AREc32 cells, 19 hours. The source says:
B. AREc32 Luciferase Reporter Assay
The AREc32 luciferase reporter assay allows for quantitative assessment of the endogenous activity of the Nrf2 transcription factor in cultured mammalian cells. AREc32 cells are derived from MCF-7 human breast carcinoma cells that were stably transfected with a reporter construct that contains the firefly luciferase gene located downstream of eight copies of the rat GSTA2 antioxidant response element (ARE) sequence (Wang et al., 2006; CXR Biosciences). Active NRF2 binds to the ARE sequences and increases expression of the firefly luciferase gene. To assess the NRF2-activating potential of the test compounds, AREc32 cells were plated in black 96-well plates at a density of 20,000 cells per well in triplicate in DMEM+10% FBS+0.8 mg/mL Geneticin and incubated at 37° C. with 5% CO2 in a humidified atmosphere. The next day, cells were treated with DMSO (vehicle) or test compound (concentration ranges of 0.4-200 nM or 2-1000 nM) for 19 hours. Luciferase activity was determined using the ONE-Glo Luciferase assay (Promega). The luminescence signal was measured on a BMG Pherastar microplate reader. The mean luminescence value from test compound-treated wells was normalized to that from DMSO-treated wells and was represented as fold-induction. Data were analyzed using GraphPad Prism version 6.00 for Windows, GraphPad Software, La Jolla Calif. USA. A non-linear regression curve with log (agonist) vs. response using a variable slope was used to fit the data. Where applicable, a maximum threshold value of 50-fold over DMSO was set. EC2× values were interpolated from the curve. EC2× corresponds to the concentration of test compound required to increase GST ARE Luciferase reporter activity by 2-fold.

Molecules are shown by their SMILES.

The values below come from US11584775B2, “C4-modified oleanolic acid derivatives for inhibition of IL-17 and other uses” (REATA PHARMACEUTICALS, INC., priority 2015, dated 2023).

As a reminder, the IC50 is the concentration needed to halve the response being measured.

`CC(=O)OC[C@]1(C)C(=O)C(C#N)=C[C@]2(C)C3=CC(=O)[C@@H]4[C@@H]5CC(C)(C)CC[C@]5(C(=O)NCC(F)(F)F)CC[C@@]4(C)[C@]3(C)CC[C@H]21` [Compound T23, ((4R,4aR,6aS,6bR,8aS,12aS,12bR,14bS)-2-cyano-4,6a,6b, 11,11,14b-hexamethyl-3,13-dioxo-8a-((2,2,2-trifluoroethyl)carbamoyl)-3,4,4a,5,6,6a,6b,7,8,8a,9,10,11,12,12a,12b,13,14b-octadecahydropicen-4-yl)methyl acetate]: the IC50 is 145 nM in assay [1], 68 nM in assay [2] and 150 nM in assay [3]. Further, the “EC2x: concentration giving 2-fold induction of ARE luciferase reporter” value in assay [4] came out at 484 nM.
Regarding `CCNC(=O)[C@]12CCC(C)(C)C[C@H]1[C@H]1C(=O)C=C3[C@@]4(C)C=C(C#N)C(=O)C(C)(C)[C@@H]4CC[C@@]3(C)[C@]1(C)CC2` [Comparison Compound #3, reference compound], the IC50 in assay [1] was found to be 204 nM; in assay [2], 81 nM; in assay [3], 3.4 nM. The “EC2x: concentration giving 2-fold induction of ARE luciferase reporter” value in assay [4] came to 32 nM.
Regarding `COC(=O)[C@]1(C)C(=O)C(C#N)=C[C@]2(C)C3=CC(=O)[C@]45OC(=O)[C@@]6(CCC(C)(C)C[C@H]64)CC[C@@]5(C)[C@]3(C)CC[C@@H]12` [Compound T34, methyl (4S,4aR,6aR,6bS,8aS,12aR,12bS,14bS)-2-cyano-4,6a,6b, 11,11,14b-hexamethyl-3,13,16-trioxo-4,4a,5,6,6a,6b,7,8,10,11,12,12a,13,14b-tetradecahydro-3H,9H-12b,8a-(epoxymethano)picene-4-carboxylate], the concentration for half-maximal inhibition (IC50) in assay [1] was determined as 268 nM; in assay [2], 46 nM; in assay [3] it was 383 nM. In addition, the “EC2x: concentration giving 2-fold induction of ARE luciferase reporter” value in assay [4] is 377 nM.
`CC(=O)OC[C@]1(C)C(=O)C(C#N)=C[C@]2(C)C3=CC(=O)[C@]45OC(=O)[C@@]6(CCC(C)(C)C[C@H]64)CC[C@@]5(C)[C@]3(C)CC[C@H]21` [Compound T32, ((4R,4aR,6aR,6bS,8aS,12aR,12bS,14bS)-2-cyano-4,6a,6b, 11,11,14b-hexamethyl-3,13,16-trioxo-4,4a,5,6,6a,6b,7,8,10,11,12,12a,13,14b-tetradecahydro-3H,9H-12b,8a-(epoxymethano)picen-4-yl)methyl acetate]: the half-maximal inhibitory concentration (IC50) in assay [1] was found to be 118 nM; in assay [2], 28 nM; in assay [3], 115 nM. For the same compound, the “EC2x: concentration giving 2-fold induction of ARE luciferase reporter” value in assay [4] is given as 243 nM.
Taken in the same sequence, the figures for `COC(=O)[C@]12CCC(C)(C)C[C@H]1[C@@]1(O)C(=O)C=C3[C@@]4(C)C=C(C#N)C(=O)[C@@](C)(O)[C@@H]4CC[C@@]3(C)[C@]1(C)CC2` [Compound T38, methyl (4aS,6aS,6bR,8aR,9S,12aS,14aS,14bR)-11-cyano-9,14a-dihydroxy-2,2,6a,6b,9,12a-hexamethyl-10,14-dioxo-1,3,4,5,6,6a,6b,7,8,8a,9,10,12a,14,14a,14b-hexadecahydropicene-4a(2H)-carboxylate] were 177 nM, 16 nM, 57.2 nM and 80 nM.
Taken in the same sequence, the figures for `CC1(C)CC[C@]2(C(=O)NCC(F)(F)F)CC[C@]3(C)[C@H](C(=O)C=C4[C@@]5(C)C=C(C#N)C(=O)[C@@](C)(O)[C@@H]5CC[C@]43C)[C@@H]2C1` [Compound T24, (4aS,6aR,6bS,8aR,9S,12aS,14aR,14bS)-11-cyano-9-hydroxy-2,2,6a,6b,9,12a-hexamethyl-10,14-dioxo-N-(2,2,2-trifluoroethyl)-1,3,4,5,6,6a,6b,7,8,8a,9,10,12a,14,14a,14b-hexadecahydropicene-4a(2H)-carboxamide] were 197 nM, 37 nM, 184 nM and 406 nM.
Consider `Cc1nnc([C@]23CCC(C)(C)C[C@H]2[C@H]2C(=O)C=C4[C@@]5(C)C=C(C#N)C(=O)[C@@](C)(CO)[C@@H]5CC[C@@]4(C)[C@]2(C)CC3)o1` [Compound T42, (4R,4aR,6aS,6bR,8aS,12aS,12bR,14bS)-4-(hydroxymethyl)-4,6a,6b, 11,11,14b-hexamethyl-8a-(5-methyl-1,3,4-oxadiazol-2-yl)-3,13-dioxo-3,4,4a,5,6,6a,6b,7,8,8a,9,10,11,12,12a,12b,13,14b-octadecahydropicene-2-carbonitrile], for which the concentration for half-maximal inhibition (IC50) in assay [1] was 389 nM; in assay [2], 101 nM; in assay [3], 10.4 nM. For the same compound, in assay [4], the “EC2x: concentration giving 2-fold induction of ARE luciferase reporter” value was 97 nM.
